The source made the active and inactive calls. No cut-off for these calls is given here.
Experiments:
[1] = target: T1, N-acetylgalactosamine-6-sulfatase (Homo sapiens) (UniProt P34059); assay: Chaperone activity at GALNS in human fibroblasts assessed as change in lysosomal mass at 0.01 to 10 uM incubated for 36 hrs by deep red Lysotracker based flow cytometric analysis
T1 sequence (whole entry): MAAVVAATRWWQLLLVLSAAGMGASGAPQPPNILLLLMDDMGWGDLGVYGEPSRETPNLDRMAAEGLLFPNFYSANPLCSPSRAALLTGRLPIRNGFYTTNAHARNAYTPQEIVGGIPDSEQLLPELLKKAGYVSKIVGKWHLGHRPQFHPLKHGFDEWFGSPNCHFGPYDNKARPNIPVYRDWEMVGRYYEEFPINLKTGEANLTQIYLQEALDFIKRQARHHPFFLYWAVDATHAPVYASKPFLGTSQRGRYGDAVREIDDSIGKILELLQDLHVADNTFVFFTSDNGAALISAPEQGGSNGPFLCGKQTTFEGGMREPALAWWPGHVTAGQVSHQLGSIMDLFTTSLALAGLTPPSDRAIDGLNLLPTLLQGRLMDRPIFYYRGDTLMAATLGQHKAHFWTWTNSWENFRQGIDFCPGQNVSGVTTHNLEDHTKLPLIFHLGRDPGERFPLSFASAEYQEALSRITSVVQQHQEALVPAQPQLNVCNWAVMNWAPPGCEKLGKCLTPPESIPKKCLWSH

[2] = target: T1, N-acetylgalactosamine-6-sulfatase (Homo sapiens); assay: Chaperone activity at recombinant human GALNS expressed in HEK293 cells assessed as fold increase in extracellular enzyme activity using 4MUGPS as substrate at 10 uM incubated for 48 hrs by fluorescence assay relative to control; format: cell-based
[3] = species on record: Homo sapiens; assay: Chaperone activity at GALNS p.R61W/p.W405_T406 deletion mutant in mucopolysaccharidosis IVA patient-derived fibroblasts GM01361 assessed as enzyme activity using 4MUGPS as substrate at 1 to 10 uM incubated for 48 hrs by fluorescence assay
[4] = species on record: Homo sapiens; assay: (§1) Chaperone activity at GALNS p.R386C/p.F285 deletion mutant in mucopolysaccharidosis IVA patient-derived fibroblasts GM00593 assessed as reduction in lysosomal mass by measuring mean fluorescence intensity at 10 uM incubated for 36 hrs by deep red Lysotracker based flow cytometric analysis (reference value: 61.8 +/- 8.4%); design: scale not given: the % may be the effect or the level left
[5] = Protein binding in plasma of parkinson's disease patients; format: ADME, cell-free; details: human, read-out: PPB
[6] = species on record: Homo sapiens; assay: (§2) Chaperone activity at GALNS p.R61W/p.W405_T406 deletion mutant in mucopolysaccharidosis patient-derived fibroblasts GM01361 assessed as reduction in lysosomal mass by measuring mean fluorescence intensity at 0.1 uM incubated for 36 hrs by deep red Lysotracker based flow cytometric analysis (reference value: 48.3 +/- 7.7%); design: scale not given: the % may be the effect or the level left
[7] = species on record: Homo sapiens; assay: Chaperone activity at GALNS p.R61W/p.W405_T406 deletion mutant in mucopolysaccharidosis IVA patient-derived fibroblasts GM01361 assessed as fold increase in enzyme activity using 4MUGPS as substrate at 0.1 uM incubated for 48 hrs by fluorescence assay relative to control
[8] = species on record: Homo sapiens; assay: Chaperone activity at GALNS p.A393S mutant in mucopolysaccharidosis IVA patient-derived fibroblasts GM00958 assessed as enzyme activity using 4MUGPS as substrate at 0.001 to 10 uM incubated for 48 hrs by fluorescence assay
[9] = Total plasma concentration in parkinson's disease patients; format: ADME, cell-free; details: human
[10] = target: T1, N-acetylgalactosamine-6-sulfatase (Homo sapiens); assay: Chaperone activity at recombinant human GALNS expressed in HEK293 cells assessed as fold increase in extracellular enzyme activity using 4MUGPS as substrate at 1 uM incubated for 48 hrs by fluorescence assay relative to control; format: cell-based
[11] = target: T1, N-acetylgalactosamine-6-sulfatase (Homo sapiens); assay: Inhibition of recombinant human GALNS expressed in Pichia pastoris at 0.001 to 50 uM using 4MUGPS as substrate incubated for 18 hrs by fluorescence assay relative to control
[12] = species on record: Homo sapiens; assay: as §2, with “mucopolysaccharidosis IVA” for “mucopolysaccharidosis”, “0.01” for “0.1”; design: scale not given: the % may be the effect or the level left
[13] = species on record: Homo sapiens; assay: Chaperone activity at GALNS p.R386C/p.F285 deletion mutant in mucopolysaccharidosis IVA patient-derived fibroblasts GM00593 assessed as fold increase in enzyme activity using 4MUGPS as substrate at 10 uM incubated for 48 hrs by fluorescence assay relative to control
[14] = species on record: Homo sapiens; assay: as §1, with “1” for “10”; design: scale not given: the % may be the effect or the level left

SMILES: CC(C)C[C@H]1C(=O)N2CCC[C@H]2[C@]2(O)O[C@](NC(=O)[C@@H]3C=C4c5cccc6[nH]c(Br)c(c56)C[C@H]4N(C)C3)(C(C)C)C(=O)N12 [BROMOCRIPTINE]
- Activity [1]: inactive
- fold change (FC) [2]: 1.48
- Activity [3]: inactive
- Activity [4]: 10.5%
- fraction unbound [5]: 0.04 to 0.1
- Activity [6]: 7.3%
- fold change (FC) [7]: 1.5
- Activity [8]: inactive
- concentration [9]: 10 to 250 nM
- fold change (FC) [10]: 1.36
- inhibition [11]: 30%
- Activity [12]: 11.7%
- fold change (FC) [13]: 1.52
- Activity [14]: 18.2%

From ChEMBL document CHEMBL4622962, “Bromocriptine as a Novel Pharmacological Chaperone for Mucopolysaccharidosis IV A” (ACS Med Chem Lett, 2020)
